Results as given in patent publication US12391683B2, “Therapeutic compounds and methods” (Actio Biosciences, Inc., priority 2022, dated 2025).

Assays:
TRPV1 channels = biological target: T1, TRPV1 channels (Homo sapiens, UniProt Q8NER1); assay: TRP Family FLIPR Assay, TRPV1; type: cell-based; settings: HEK293 cells
T1 construct: expressed in transfected cells; host or cells: HEK293
Experimental: (§1) The compound of Example 5 was tested for selectivity against a panel of Human TRP family ion channels in a TRP Family FLIPR Assay as described below. • 1. TRPC3 channels (human TRPC3 variant 1 gene, expressed in HEK293 cells). • 2. TRPC4 channels (human TRPC4 gene, expressed in HEK293 cells). • 3. TRPC5 channels (human TRPC5 gene, expressed in HEK293 cells). • 4. TRPC6 channels (human TRPC6 gene, expressed in HEK293 cells). • 5. TRPM2 channels (human TRPM2 gene, transiently expressed in HEK293 cells). • 6. TRPM3 channels (human TRPM3 gene, transiently expressed in HEK293 cells). • 7. TRPM4 channels (human TRPM4 gene, expressed in CHO cells). • 8. […]
(§2) Data acquisition was performed via the FLIPR Control software supplied with the FLIPR System (MDS-AT) and data was analyzed using Microsoft Excel (Microsoft Corp., Redmond, WA) or GraphPad Prism. […]
(§3) [formula] where Base is the response at low concentrations of test article, Max is the maximum response at high concentrations, xhalf the EC50, or IC50, the concentration of test article producing either half-maximal activation or inhibition, and rate is the Hill coefficient. […] No assumptions about the fit parameters was made; the fit parameters were determined by the algorithm.
(§4) The effect of each test article was evaluated at eight (8) concentrations: 0.003, 0.01, 0.03, 0.1, 0.3, 1, 3 and 10 μM, n≤4 wells/concentration). […]

TRPV2 channels = biological target: T2, TRPV2 channels (Homo sapiens, UniProt Q9Y5S1); assay: TRP Family FLIPR Assay, TRPV2; type: cell-based; settings: HEK293 cells (transient)
T2 construct: expressed in transfected cells; host or cells: HEK293 (transient)
T2 sequence (Q9Y5S1 1-764): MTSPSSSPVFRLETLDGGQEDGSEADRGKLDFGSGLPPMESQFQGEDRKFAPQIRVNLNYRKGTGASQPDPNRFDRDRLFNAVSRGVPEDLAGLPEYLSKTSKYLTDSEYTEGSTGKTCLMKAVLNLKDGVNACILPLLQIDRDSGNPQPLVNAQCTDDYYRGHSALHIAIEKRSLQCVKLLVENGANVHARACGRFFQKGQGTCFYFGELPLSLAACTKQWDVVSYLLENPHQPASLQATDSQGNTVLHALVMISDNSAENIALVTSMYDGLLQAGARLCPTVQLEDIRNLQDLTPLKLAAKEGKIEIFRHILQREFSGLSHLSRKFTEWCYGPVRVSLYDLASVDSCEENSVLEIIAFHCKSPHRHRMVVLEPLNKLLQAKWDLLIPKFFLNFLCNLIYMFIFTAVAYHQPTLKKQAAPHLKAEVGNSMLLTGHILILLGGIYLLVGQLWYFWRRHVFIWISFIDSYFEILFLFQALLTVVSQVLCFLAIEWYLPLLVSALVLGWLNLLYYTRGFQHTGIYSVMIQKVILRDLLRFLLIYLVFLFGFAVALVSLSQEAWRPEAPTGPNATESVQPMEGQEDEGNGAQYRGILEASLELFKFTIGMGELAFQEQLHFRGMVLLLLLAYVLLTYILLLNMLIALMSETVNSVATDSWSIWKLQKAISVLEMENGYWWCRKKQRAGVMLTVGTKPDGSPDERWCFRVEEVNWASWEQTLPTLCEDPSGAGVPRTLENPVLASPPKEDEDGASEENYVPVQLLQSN
Experimental: as §1, §2, §3, §4

T1 sequence (Q8NER1 whole entry): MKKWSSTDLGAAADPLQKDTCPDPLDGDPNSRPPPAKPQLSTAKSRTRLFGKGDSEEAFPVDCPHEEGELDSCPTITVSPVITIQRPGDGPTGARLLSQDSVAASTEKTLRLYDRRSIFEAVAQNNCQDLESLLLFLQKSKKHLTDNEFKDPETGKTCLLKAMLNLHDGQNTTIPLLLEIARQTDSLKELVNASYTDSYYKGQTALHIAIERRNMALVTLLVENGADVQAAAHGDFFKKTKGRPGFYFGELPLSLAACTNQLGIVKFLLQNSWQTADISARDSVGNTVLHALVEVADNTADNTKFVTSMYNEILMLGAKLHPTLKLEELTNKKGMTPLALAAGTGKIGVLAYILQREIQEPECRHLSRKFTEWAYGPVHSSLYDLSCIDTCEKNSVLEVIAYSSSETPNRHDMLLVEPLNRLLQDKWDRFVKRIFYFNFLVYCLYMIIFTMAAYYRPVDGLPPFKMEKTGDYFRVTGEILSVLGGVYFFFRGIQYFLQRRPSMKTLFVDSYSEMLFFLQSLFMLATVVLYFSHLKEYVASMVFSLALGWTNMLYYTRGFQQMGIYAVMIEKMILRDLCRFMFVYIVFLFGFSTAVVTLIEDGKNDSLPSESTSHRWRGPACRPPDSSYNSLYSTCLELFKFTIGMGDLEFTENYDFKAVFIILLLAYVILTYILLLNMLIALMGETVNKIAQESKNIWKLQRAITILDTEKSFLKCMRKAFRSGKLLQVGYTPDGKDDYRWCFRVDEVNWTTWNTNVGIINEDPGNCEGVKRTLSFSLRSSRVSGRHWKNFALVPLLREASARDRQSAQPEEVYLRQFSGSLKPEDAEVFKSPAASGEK

CC(C)(O)c1cnc(N2C[C@@]3(CC[C@@H](F)[C@](C)(Cn4cnc5ccc(C#N)cc54)C3)OC2=O)cn1 (single isomer, unassigned) [Example 5]
> 10 µM: EC50 (TRPV1 channels; agonist mode, vs EMAX of capsaicin 1 μM, read-out: EC50 hTRPV1) | IC50 (TRPV1 channels; antagonist mode, activated with capsaicin 0.1 μM, 0.003-10 μM, read-out: IC50 hTRPV1) | EC50 (TRPV2 channels; agonist mode, vs EMAX of cannabidiol 300 μM, read-out: EC50 hTRPV2) | IC50 (TRPV2 channels; antagonist mode, activated with capsaicin 100 μM, 0.003-10 μM, read-out: IC50 hTRPV2)
